From US11497752B2, “Compounds and uses thereof” (Foghorn Therapeutics Inc., priority 2018, dated 2022)

Assays:
[1] = test system: uveal melanoma and hematologic cancer cell lines; settings: FIG. 1; 0 to 10 micromolar; uveal melanoma and hematologic cancer cell lines vs other tested cell lines
[2] = test system: Uveal melanoma cell lines, 92-1 or MP41; assay: Comparison with clinical PKC and MEK inhibitors in uveal melanoma cell lines (Cell-titer glo, 3 days); format: cell-based; settings: FIG. 2, vs LXS196 and Selumetinib
[3] = biological target: BRG-1 (Homo sapiens, UniProt P51532); assay: ATPase catalytic activity of BRG-1 (ADP-Glo in vitro biochemical assay); settings: for BRG1 Max % Inhibition: Table 6
Sequence of BRG-1 (P51532 whole entry): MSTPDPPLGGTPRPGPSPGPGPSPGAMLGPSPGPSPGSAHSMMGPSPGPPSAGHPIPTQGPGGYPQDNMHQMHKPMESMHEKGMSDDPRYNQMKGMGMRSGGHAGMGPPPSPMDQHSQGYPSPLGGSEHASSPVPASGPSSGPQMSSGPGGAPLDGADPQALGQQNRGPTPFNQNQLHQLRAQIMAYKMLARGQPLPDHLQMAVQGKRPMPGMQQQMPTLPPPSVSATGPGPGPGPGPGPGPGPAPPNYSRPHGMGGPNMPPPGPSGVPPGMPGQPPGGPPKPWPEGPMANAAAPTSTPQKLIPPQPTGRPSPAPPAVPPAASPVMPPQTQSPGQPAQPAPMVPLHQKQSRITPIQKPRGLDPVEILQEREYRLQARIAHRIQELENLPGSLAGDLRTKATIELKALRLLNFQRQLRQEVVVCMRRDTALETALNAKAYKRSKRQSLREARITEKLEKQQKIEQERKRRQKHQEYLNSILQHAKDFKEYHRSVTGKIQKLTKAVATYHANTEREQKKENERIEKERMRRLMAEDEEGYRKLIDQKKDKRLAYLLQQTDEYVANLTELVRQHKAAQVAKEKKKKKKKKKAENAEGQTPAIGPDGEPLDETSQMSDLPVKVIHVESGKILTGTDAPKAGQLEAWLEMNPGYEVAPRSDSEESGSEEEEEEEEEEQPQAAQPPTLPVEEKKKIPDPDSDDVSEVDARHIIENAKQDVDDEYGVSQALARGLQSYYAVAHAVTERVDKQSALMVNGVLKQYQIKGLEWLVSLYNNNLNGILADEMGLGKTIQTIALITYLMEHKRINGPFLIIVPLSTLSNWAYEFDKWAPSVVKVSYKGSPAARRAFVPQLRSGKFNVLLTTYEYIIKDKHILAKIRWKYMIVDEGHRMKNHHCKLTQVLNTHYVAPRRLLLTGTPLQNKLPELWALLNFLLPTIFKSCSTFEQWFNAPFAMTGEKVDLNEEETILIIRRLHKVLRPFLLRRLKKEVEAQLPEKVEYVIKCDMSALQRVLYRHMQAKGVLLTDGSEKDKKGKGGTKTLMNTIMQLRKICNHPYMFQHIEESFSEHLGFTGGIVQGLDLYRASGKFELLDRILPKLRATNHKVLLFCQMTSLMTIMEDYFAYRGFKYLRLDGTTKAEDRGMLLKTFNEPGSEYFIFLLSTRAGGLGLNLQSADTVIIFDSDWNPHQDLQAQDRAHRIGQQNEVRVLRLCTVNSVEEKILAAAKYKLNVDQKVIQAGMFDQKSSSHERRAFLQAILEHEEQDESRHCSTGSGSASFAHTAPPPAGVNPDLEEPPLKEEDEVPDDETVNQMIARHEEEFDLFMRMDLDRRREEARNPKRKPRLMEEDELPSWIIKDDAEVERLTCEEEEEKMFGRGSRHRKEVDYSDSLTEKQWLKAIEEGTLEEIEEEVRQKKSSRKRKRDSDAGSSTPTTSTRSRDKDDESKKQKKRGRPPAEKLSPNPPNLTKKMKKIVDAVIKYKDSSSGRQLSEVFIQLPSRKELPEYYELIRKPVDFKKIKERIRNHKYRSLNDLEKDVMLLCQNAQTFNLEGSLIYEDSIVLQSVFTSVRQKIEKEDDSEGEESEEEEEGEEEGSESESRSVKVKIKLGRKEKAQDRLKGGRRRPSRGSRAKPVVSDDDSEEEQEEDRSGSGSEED

[4] = biological target: BRM (Homo sapiens, UniProt P51531); assay: ATPase catalytic activity of BRM (ADP-Glo in vitro biochemical assay); settings: for BRM Max % Inhibition: Table 6
Sequence of BRM (P51531 whole entry): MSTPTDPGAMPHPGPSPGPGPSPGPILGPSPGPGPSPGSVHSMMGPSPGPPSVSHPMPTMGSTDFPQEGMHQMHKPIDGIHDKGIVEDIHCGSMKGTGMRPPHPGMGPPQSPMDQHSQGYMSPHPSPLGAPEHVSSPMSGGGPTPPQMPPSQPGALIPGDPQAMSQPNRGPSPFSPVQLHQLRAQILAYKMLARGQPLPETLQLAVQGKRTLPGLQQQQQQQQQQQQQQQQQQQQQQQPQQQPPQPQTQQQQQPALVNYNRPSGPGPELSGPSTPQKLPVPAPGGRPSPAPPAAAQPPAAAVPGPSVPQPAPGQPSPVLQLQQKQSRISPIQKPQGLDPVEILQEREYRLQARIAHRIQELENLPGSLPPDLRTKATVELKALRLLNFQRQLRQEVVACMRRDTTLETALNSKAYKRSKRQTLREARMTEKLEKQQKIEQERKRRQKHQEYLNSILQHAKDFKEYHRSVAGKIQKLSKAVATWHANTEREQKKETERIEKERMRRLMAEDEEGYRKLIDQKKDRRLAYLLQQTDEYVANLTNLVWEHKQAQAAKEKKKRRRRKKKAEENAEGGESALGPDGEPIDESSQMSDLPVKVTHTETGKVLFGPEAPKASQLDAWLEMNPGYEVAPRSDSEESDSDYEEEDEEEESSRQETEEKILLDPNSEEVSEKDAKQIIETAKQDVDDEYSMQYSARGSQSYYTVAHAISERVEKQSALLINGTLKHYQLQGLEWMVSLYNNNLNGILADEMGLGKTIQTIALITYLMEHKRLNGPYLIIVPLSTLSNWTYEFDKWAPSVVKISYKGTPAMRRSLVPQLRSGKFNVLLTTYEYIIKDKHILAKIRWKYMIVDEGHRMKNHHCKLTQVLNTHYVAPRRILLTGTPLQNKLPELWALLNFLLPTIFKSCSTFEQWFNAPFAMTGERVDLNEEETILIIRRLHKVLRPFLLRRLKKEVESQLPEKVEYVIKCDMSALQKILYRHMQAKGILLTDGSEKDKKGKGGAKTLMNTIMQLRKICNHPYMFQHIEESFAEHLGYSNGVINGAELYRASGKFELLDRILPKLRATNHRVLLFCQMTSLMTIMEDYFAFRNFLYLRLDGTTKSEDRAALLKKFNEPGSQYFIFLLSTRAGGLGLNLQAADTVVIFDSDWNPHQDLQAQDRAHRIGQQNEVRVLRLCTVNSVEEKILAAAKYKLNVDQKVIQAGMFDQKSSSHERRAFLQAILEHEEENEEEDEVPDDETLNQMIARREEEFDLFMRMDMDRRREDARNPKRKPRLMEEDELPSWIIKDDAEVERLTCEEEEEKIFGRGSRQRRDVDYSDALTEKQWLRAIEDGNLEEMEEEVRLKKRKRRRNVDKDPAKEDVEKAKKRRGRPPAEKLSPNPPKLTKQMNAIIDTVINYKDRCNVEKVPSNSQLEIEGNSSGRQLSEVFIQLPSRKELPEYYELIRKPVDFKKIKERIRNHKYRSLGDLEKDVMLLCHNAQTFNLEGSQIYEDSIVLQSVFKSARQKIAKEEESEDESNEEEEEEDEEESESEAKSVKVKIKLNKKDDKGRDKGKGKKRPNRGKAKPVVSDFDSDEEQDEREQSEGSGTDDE

CSCC[C@H](NC(=O)c1ccc(N)cc1)C(=O)Nc1nc(-c2cccc(-c3ccncc3)c2)cs1 [Compound 87, (S)-4-amino-N-(4-(methylthio)-1-oxo-1-((4-(3-(pyridin-4-yl)phenyl)thiazol-2-yl)amino)butan-2-yl)benzamide]
sensitivity of cell lines to growth inhibition (GI50) [1]: more sensitive to BRG1/BRM inhibition than the other tested cell lines
growth inhibition of uveal melanoma cells ([2]; 0 to 10 micromolar, 3 days): comparable growth inhibition of uveal melanoma cells as the clinical PKC and MEK inhibitors
onset of inhibition [2]: faster onset of inhibition than the clinical PKC and MEK inhibitors

COC(C)(C)Cn1ccc(-c2cccc(-c3csc(NC(=O)CNC(=O)c4ccc(N)cc4)n3)c2)n1 [Compound 232, 4-amino-N-[2-[[4-[3-[1-(2-methoxy-2-methyl-propyl)pyrazol-3-yl]phenyl]thiazol-2-yl]amino]-2-oxo-ethyl]benzamide]
IC50 [3]: 100 to 1000 nM
BRG1 Max % Inhibition [3]: >80%
IC50 [4]: 100 to 1000 nM
BRM Max % Inhibition [4]: >80%

CN(C)CC[C@H](NC(=O)c1ccc(N)cc1)C(=O)Nc1nc(-c2cccc(-c3ccncc3)c2)cs1 [Compound 233, (S)-4-amino-N-(4-(dimethylamino)-1-oxo-1-((4-(3-(pyridin-4-yl)phenyl)thiazol-2-yl)amino)butan-2-yl)benzamide]
IC50 [3]: 100 to 1000 nM
BRG1 Max % Inhibition [3]: >80%
IC50 [4]: 100 to 1000 nM
BRM Max % Inhibition [4]: >90%

Nc1ccc(C(=O)NCC(=O)Nc2nc(-c3cccc(N4CCC[C@@H](O)C4)c3)cs2)cc1 [Compound 234, 4-amino-N-[2-[[4-[3-[(3R)-3-hydroxy-1-piperidyl]phenyl]thiazol-2-yl]amino]-2-oxo-ethyl]benzamide]
IC50 [3]: 100 to 1000 nM
BRG1 Max % Inhibition [3]: >90%
IC50 [4]: 100 to 1000 nM
BRM Max % Inhibition [4]: >90%

CC(OC1CCOCC1)c1cccc(-c2csc(NC(=O)CNC(=O)c3ccc(N)cc3)n2)c1 (stereo not shown) [Compound 235, 4-amino-N-[2-oxo-2-[[4-[3-(1-tetrahydropyran-4-yloxyethyl)phenyl]thiazol-2-yl]amino]ethyl]benzamide]
IC50 [3]: 100 to 1000 nM
BRG1 Max % Inhibition [3]: >70%
IC50 [4]: 100 to 1000 nM
BRM Max % Inhibition [4]: >90%

Nc1ccc(C(=O)NCC(=O)Nc2nc(-c3cccc(N4CCC[C@H](O)C4)c3)cs2)cc1 [Compound 236, 4-amino-N-[2-[[4-[3-[(3S)-3-hydroxy-1-piperidyl]phenyl]thiazol-2-yl]amino]-2-oxo-ethyl]benzamide]
IC50 [3]: 100 to 1000 nM
BRG1 Max % Inhibition [3]: >90%
IC50 [4]: 100 to 1000 nM
BRM Max % Inhibition [4]: >90%

CSCC[C@H](NC(=O)c1ccc(N)cc1)C(=O)Nc1nc(-c2cccc(-c3cccc(CN)c3)c2)cs1 [Compound 237, 4-amino-N-[(1S)-1-[[4-[3-[3-(aminomethyl)phenyl]phenyl]thiazol-2-yl]carbamoyl]-3-methylsulfanyl-propyl]benzamide]
IC50 [3]: 100 to 1000 nM
BRG1 Max % Inhibition [3]: >90%
IC50 [4]: 100 to 1000 nM
BRM Max % Inhibition [4]: >90%

CO[C@H]1CCCN(c2cccc(-c3csc(NC(=O)CNC(=O)c4ccc(N)cc4)n3)c2)C1 [Compound 238, 4-amino-N-[2-[[4-[3-[(3S)-3-methoxy-1-piperidyl]phenyl]thiazol-2-yl]amino]-2-oxo-ethyl]benzamide]
IC50 [3]: 100 to 1000 nM
BRG1 Max % Inhibition [3]: >95%
IC50 [4]: 100 to 1000 nM
BRM Max % Inhibition [4]: >90%

Nc1ccc(C(=O)NCC(=O)Nc2nc(-c3cccc(C4CCCCO4)c3)cs2)cc1 (stereo not shown) [Compound 239, 4-amino-N-[2-oxo-2-[[4-(3-tetrahydropyran-2-ylphenyl)thiazol-2-yl]amino]ethyl]benzamide]
IC50 [3]: 100 to 1000 nM
BRG1 Max % Inhibition [3]: >80%
IC50 [4]: 100 to 1000 nM
BRM Max % Inhibition [4]: >90%

Nc1ccc(C(=O)NCC(=O)Nc2nc(-c3ccc4cncnc4c3)cs2)cc1 [Compound 240, 4-amino-N-[2-oxo-2-[(4-quinazolin-7-ylthiazol-2-yl)amino]ethyl]benzamide]
IC50 [3]: 100 to 1000 nM
BRG1 Max % Inhibition [3]: >80%
IC50 [4]: 100 to 1000 nM
BRM Max % Inhibition [4]: >80%

CC(C)(N)Cn1ccc(-c2cccc(-c3csc(NC(=O)CNC(=O)c4ccc(N)cc4)n3)c2)n1 [Compound 241, 4-amino-N-[2-[[4-[3-[1-(2-amino-2-methyl-propyl)pyrazol-3-yl]phenyl]thiazol-2-yl]amino]-2-oxo-ethyl]benzamide]
IC50 [3]: 100 to 1000 nM
BRG1 Max % Inhibition [3]: >90%
IC50 [4]: 100 to 1000 nM
BRM Max % Inhibition [4]: >90%
